Data from the NIST ThermoML archive (doi:10.1016/j.fluid.2015.12.007).

Experiment: xn = mol fraction of the nth substance listed
Conditions: 101 kPa, Liquid; for speed of sound: Sing-around technique in a fixed-path interferometer; for mass density: Vibrating tube method

CC(O)CO (centres undefined) [1,2-propanediol] + CCCCn1cc[n+](C)c1.F[B-](F)(F)F
Conditions | mass density [kg/m3] | speed of sound [m/s]
293.15 K, x2 = 0.0521 | 1056.41 | 1527.9
293.15 K, x2 = 0.1068 | 1074.4 | 1532.7
293.15 K, x2 = 0.2089 | 1101.55 | 1538.5
293.15 K, x2 = 0.3074 | 1122.27 | 1543.9
293.15 K, x2 = 0.4035 | 1139.05 | 1549.8
293.15 K, x2 = 0.5031 | 1153.8 | 1554.6
293.15 K, x2 = 0.5907 | 1164.95 | 1559
293.15 K, x2 = 0.7031 | 1177.42 | 1564.6
293.15 K, x2 = 0.8 | 1187.25 | 1568.6
293.15 K, x2 = 0.8992 | 1196.18 | 1572
298.15 K, x2 = 0.0521 | 1052.69 | 1515.3
298.15 K, x2 = 0.1068 | 1070.64 | 1520
298.15 K, x2 = 0.2089 | 1097.72 | 1526.2
298.15 K, x2 = 0.3074 | 1118.42 | 1531.5
298.15 K, x2 = 0.4035 | 1135.23 | 1537.5
298.15 K, x2 = 0.5031 | 1150.01 | 1542.5
298.15 K, x2 = 0.5907 | 1161.21 | 1547
298.15 K, x2 = 0.7031 | 1173.74 | 1552.6
298.15 K, x2 = 0.8 | 1183.62 | 1556.7
298.15 K, x2 = 0.8992 | 1192.57 | 1560.5
303.15 K, x2 = 0.0521 | 1048.94 | 1502.2
303.15 K, x2 = 0.1068 | 1066.85 | 1507
303.15 K, x2 = 0.2089 | 1093.89 | 1513.8
303.15 K, x2 = 0.3074 | 1114.58 | 1519.2
303.15 K, x2 = 0.4035 | 1131.41 | 1525.3
303.15 K, x2 = 0.5031 | 1146.23 | 1530.3
303.15 K, x2 = 0.5907 | 1157.48 | 1535
303.15 K, x2 = 0.7031 | 1170.07 | 1540.7
303.15 K, x2 = 0.8 | 1180 | 1544.9
303.15 K, x2 = 0.8992 | 1188.99 | 1549
308.15 K, x2 = 0.0521 | 1045.16 | 1488.9
308.15 K, x2 = 0.1068 | 1063.06 | 1494
308.15 K, x2 = 0.2089 | 1090.06 | 1501.1
308.15 K, x2 = 0.3074 | 1110.75 | 1506.8
308.15 K, x2 = 0.4035 | 1127.62 | 1513.1
308.15 K, x2 = 0.5031 | 1142.48 | 1518.2
308.15 K, x2 = 0.5907 | 1153.77 | 1523
308.15 K, x2 = 0.7031 | 1166.42 | 1528.9
308.15 K, x2 = 0.8 | 1176.39 | 1533.2
308.15 K, x2 = 0.8992 | 1185.42 | 1537.5
313.15 K, x2 = 0.0521 | 1041.36 | 1475.6
313.15 K, x2 = 0.1068 | 1059.24 | 1481.1
313.15 K, x2 = 0.2089 | 1086.22 | 1488.5
313.15 K, x2 = 0.3074 | 1106.92 | 1494.5
313.15 K, x2 = 0.4035 | 1123.83 | 1501
313.15 K, x2 = 0.5031 | 1138.74 | 1506.2
313.15 K, x2 = 0.5907 | 1150.08 | 1511.1
313.15 K, x2 = 0.7031 | 1162.79 | –
313.15 K, x2 = 0.8 | 1172.81 | 1521.7
313.15 K, x2 = 0.8992 | 1181.86 | 1526.1
318.15 K, x2 = 0.0521 | 1037.53 | 1462.3
318.15 K, x2 = 0.1068 | 1055.4 | 1468.1
318.15 K, x2 = 0.2089 | 1082.38 | 1476
318.15 K, x2 = 0.3074 | 1103.1 | 1482.3
318.15 K, x2 = 0.4035 | 1120.04 | 1488.9
318.15 K, x2 = 0.5031 | 1135.01 | 1494.3
318.15 K, x2 = 0.5907 | 1146.4 | 1499.4
318.15 K, x2 = 0.7031 | 1159.17 | 1505.6
318.15 K, x2 = 0.8 | 1169.23 | 1510.3
318.15 K, x2 = 0.8992 | 1178.32 | 1515

CC(O)CO (centres undefined) [1,2-propanediol] + CCCC[n+]1ccn(C)c1.O=S(=O)([N-]S(=O)(=O)C(F)(F)F)C(F)(F)F
Conditions | mass density [kg/m3] | speed of sound [m/s]
293.15 K, x2 = 0.0606 | 1117.8 | 1446.5
293.15 K, x2 = 0.1118 | 1168.99 | 1406.4
293.15 K, x2 = 0.2003 | 1234.54 | 1358.1
293.15 K, x2 = 0.3056 | 1289.66 | 1319.6
293.15 K, x2 = 0.408 | 1328.41 | 1294.8
293.15 K, x2 = 0.4987 | 1355.11 | 1279.5
293.15 K, x2 = 0.602 | 1379.69 | 1265.9
293.15 K, x2 = 0.7047 | 1399.49 | 1256.2
293.15 K, x2 = 0.7945 | 1413.97 | 1249.2
293.15 K, x2 = 0.8971 | 1428 | 1243.5
298.15 K, x2 = 0.0606 | 1113.84 | 1435.8
298.15 K, x2 = 0.1118 | 1164.21 | 1395.8
298.15 K, x2 = 0.2003 | 1230.02 | 1345.7
298.15 K, x2 = 0.3056 | 1284.95 | 1307.6
298.15 K, x2 = 0.408 | 1323.62 | 1283.1
298.15 K, x2 = 0.4987 | 1350.28 | 1268
298.15 K, x2 = 0.602 | 1374.74 | 1254.5
298.15 K, x2 = 0.7047 | 1394.49 | 1244.9
298.15 K, x2 = 0.7945 | 1409 | 1238
298.15 K, x2 = 0.8971 | 1423.19 | 1232.2
303.15 K, x2 = 0.0606 | 1109.82 | 1422.8
303.15 K, x2 = 0.1118 | 1161.05 | 1382.1
303.15 K, x2 = 0.2003 | 1225.5 | 1333.5
303.15 K, x2 = 0.3056 | 1280.27 | 1295.7
303.15 K, x2 = 0.408 | 1318.85 | 1271.4
303.15 K, x2 = 0.4987 | 1345.27 | 1256.6
303.15 K, x2 = 0.602 | 1369.61 | 1243.2
303.15 K, x2 = 0.7047 | 1389.48 | 1233.8
303.15 K, x2 = 0.7945 | 1404.07 | 1226.9
303.15 K, x2 = 0.8971 | 1418.39 | 1221.1
308.15 K, x2 = 0.0606 | 1105.77 | 1408.7
308.15 K, x2 = 0.1118 | 1156.91 | 1367.8
308.15 K, x2 = 0.2003 | 1220.98 | 1321.3
308.15 K, x2 = 0.3056 | 1275.59 | 1283.8
308.15 K, x2 = 0.408 | 1314.09 | 1259.9
308.15 K, x2 = 0.4987 | 1340.46 | 1245.3
308.15 K, x2 = 0.602 | 1364.78 | 1232
308.15 K, x2 = 0.7047 | 1384.7 | 1222.7
308.15 K, x2 = 0.7945 | 1399.37 | 1215.9
308.15 K, x2 = 0.8971 | 1413.61 | 1210.2
313.15 K, x2 = 0.0606 | 1101.68 | 1396.5
313.15 K, x2 = 0.1118 | 1152.58 | 1356.3
313.15 K, x2 = 0.2003 | 1216.47 | 1309.3
313.15 K, x2 = 0.3056 | 1270.92 | 1272.2
313.15 K, x2 = 0.408 | 1309.33 | 1248.6
313.15 K, x2 = 0.4987 | 1335.67 | 1234.1
313.15 K, x2 = 0.602 | 1359.98 | 1220.9
313.15 K, x2 = 0.7047 | 1379.79 | 1211.8
313.15 K, x2 = 0.7945 | 1394.5 | 1205
313.15 K, x2 = 0.8971 | 1408.84 | 1199.3
318.15 K, x2 = 0.0606 | 1097.57 | 1383.2
318.15 K, x2 = 0.1118 | 1147.96 | 1343.7
318.15 K, x2 = 0.2003 | 1211.95 | 1297.3
318.15 K, x2 = 0.3056 | 1266.24 | 1260.6
318.15 K, x2 = 0.408 | 1304.59 | 1237.3
318.15 K, x2 = 0.4987 | 1330.88 | 1223.1
318.15 K, x2 = 0.602 | 1355.18 | 1210.1
318.15 K, x2 = 0.7047 | 1374.95 | 1201
318.15 K, x2 = 0.7945 | 1389.43 | 1194.3
318.15 K, x2 = 0.8971 | 1404.09 | 1188.6
